The values that follow come from US12102667B2, “Polypeptides and antibiotics against gram-negative bacterium comprising the same” (priority 2021, dated 2024).

Like-named read-outs stand apart in the source and are kept apart here. Some results are limits rather than exact numbers.

The subject of test [1] is E. coli. As to conditions: cited from earlier work.
For test [2], the system named is K. pneumoniae. As to conditions: K. pneumoniae CCARM 10143; cited from earlier work.
The test system of test [3] is E. coli. Kind of test: Checkerboard assay (MIC in combination, FIC index). The class given is cell-based, Escherichia coli. Also noted: MIC of colistin: unit not given here. The conditions noted are these: for MIC of colistin: colistin-resistant E. coli FORC81. Here is the method:
LNT113 was vertically diluted 2-fold and the antibiotic was serially diluted horizontally in a 96-well plate. Bacterium at a concentration of 10^6 CFU/ml were added to each well in a CAA medium. […] The fractional inhibitory concentration (FIC) for the LNT113 or antibiotic was calculated by dividing the MIC of two drugs by combining it with the MIC of each drug alone. […] The FICI was considered as a synergistic effect ≤0.5, an additive >0.5 ˜≤1, an independent effect (indifference)>1.0 ˜≤2, and an antagonistic effect (antagonism) >2.

Test [4] relates to E. coli. In words: Antibacterial activity analysis (colony count after 2 hours in buffer). The conditions noted are these: 2 μM. The class given is cell-based, Escherichia coli. Here is the method:
(§1) The antibacterial activity of the purified protein was tested for E. coli and various K. pneumoniae strains. The bacterium were grown to an exponential phase (OD600=0.5) and harvested by centrifugation at 12,000×g for 3 minutes. Then, the pellets were washed with reaction buffer solution (20 mM Tris-HCl, pH 7.5) and diluted to about 10^6 cells/ml in the buffer solution. Then, 100 μl bacterial suspension was mixed with the purified endolysin of 100 μl in the reaction buffer solution and incubated at 37° C. for 2 hours. Finally, the mixture was diluted with PBS and loaded on an LB plate. After culturing at 37° C. overnight, the bacterial colonies were counted. All the analysis was performed in triplicate.
(§2) The same reaction was performed for the selected subject bacterium in 20 mM HEPES-NaOH, 150 mM NaCl [pH 7.4], and the unique antibacterial activity of Tris and dependence of endolysin for turgor pressure were excluded (FIG. 10a and FIG. 10b). […] The bacterial cells grown geometrically were cultured with 2 μM endolysin in low tonicity buffers (20 mM Tris-HCl, pH 7.5 or 20 mM HEPES, pH 7.5) or high tonicity buffers (buffer solution comprising 150 mM NaCl) at 37° C. for 2 hours. The cells treated with storage buffer solution (20 mM Tris-HCl, pH 7.5, 150 mM NaCl buffer solution (pH 7.5)) were used as a negative control group. The dotted line represents the detection limit (1 Log CFU/ml).
For this, endolysin EC340 at a concentration of 2 μM and each test bacterium were added to reaction buffer (20 mM Tris-Cl, pH 7.5) so that the final concentration was to be 200 μl, and were left at 37° C. for 2 hours. After 2 hours, the number of colonies of Acinetobacter baumannii, Pseudomonas aeruginosa and Escherichia coli was confirmed, and the result was shown in FIG. 3.

For test [5], the system named is K. pneumoniae. The test is described as above. The format is cell-based, Klebsiella pneumoniae. As to conditions: 2 μM. Here is the method:
as §1, §2

For `CC1(C)S[C@@H]2[C@H](NC(=O)[C@H](N)c3ccccc3)C(=O)N2[C@H]1C(=O)O` [Ampicillin], the MIC of antibiotics in test [1] (E. coli CCARM 1A746), in test [1] (E. coli CCARM 1B684) and in test [2] was no less than 128 µg/mL each time.

As for `CO/N=C(\C(=O)N[C@@H]1C(=O)N2C(C(=O)O)=C(COC(C)=O)CS[C@H]12)c1csc(N)n1` [Cefotaxime], the MIC of antibiotics in test [1] (E. coli CCARM 1A746) is 128 µg/mL; in test [1] (E. coli CCARM 1B684) it was 0.25 µg/mL; in test [2] it was 16 µg/mL.

`CC(=O)OCC1=C(C(=O)O)N2C(=O)[C@@H](NC(=O)Cc3cccs3)[C@H]2SC1` [Cephalothin]: the MIC of antibiotics in test [1] (E. coli CCARM 1A746) was no less than 128 µg/mL; in test [1] (E. coli CCARM 1B684) it was 64 µg/mL; in test [2], no less than 128 µg/mL.

For `O=C(O)c1cn(C2CC2)c2cc(N3CCNCC3)c(F)cc2c1=O` [Ciprofloxacin], the MIC of antibiotics in test [1] (E. coli CCARM 1A746) was 128 µg/mL; in test [1] (E. coli CCARM 1B684), 64 µg/mL; in test [2] it was no more than 0.25 µg/mL.

For the molecule Colistin, the “strains in which the synergistic effect with LNT113 was observed” value in test [3] (5 different E. coli strains) worked out at 4 strains among 5 strains. The “MIC of endolysin combined with colistin: Colistin” value (“MIC … with colistin: Colistin” below) turned out to be 2 µg/mL in test [3] (E. coli ATCC8738, EC340 0); 0.125 µg/mL in test [3] (E. coli ATCC8738, EC340 16); 0.0625 µg/mL in test [3] (E. coli ATCC8738, EC340 32); 0.25 µg/mL in test [3] (E. coli ATCC8738, EC340 <2); 2 µg/mL in test [3] (E. coli ATCC8738, mtEC340 0); 0.125 µg/mL in test [3] (E. coli ATCC8738, mtEC340 16). In addition, the “MIC … with colistin: Colistin” value in test [3] (E. coli ATCC8738, mtEC340 32) is 0.125 µg/mL; in test [3] (E. coli ATCC8738, mtEC340 <2), 0.25 µg/mL; in test [3] (E. coli ATOCB739, LNT113 0), 2 µg/mL; in test [3] (E. coli ATOCB739, LNT113 1), 1 µg/mL; in test [3] (E. coli ATOCB739, LNT113 2), 0.5 µg/mL; in test [3] (E. coli ATOCB739, LNT113 4), 0.0625 µg/mL. Besides, the “MIC … with colistin: Colistin” value in test [3] (E. coli FORC81, LNT113 0) was found to be 16 µg/mL; in test [3] (E. coli FORC81, LNT113 2), 4 µg/mL; in test [3] (E. coli FORC81, LNT113 4), 1 µg/mL; in test [3] (E. coli FORC81, LNT113 <0.25), 8 µg/mL; in test [3] (E. coli UPEC3150, LNT113 0), 4 µg/mL; in test [3] (E. coli UPEC3150, LNT113 1), 2 µg/mL. The “MIC … with colistin: Colistin” value in test [3] (E. coli UPEC3150, LNT113 2) amounted to 0.5 µg/mL; in test [3] (E. coli UPEC3150, LNT113 4), 0.0625 µg/mL. The “combination effect with LNT113 (FICI class)” value is given as “synergistic effect (a synergistic effect ≤0.5)” in test [3] (E. coli ATCC 8739); “synergistic effect (a synergistic effect ≤0.5)” in test [3] (E. coli FORC81); “synergistic effect (a synergistic effect ≤0.5)” in test [3] (E. coli UPEC 3150); “synergistic effect (a synergistic effect ≤0.5)” in test [3] (antibiotic combined with LNT113, E. coli strains overall). The “MIC of colistin in presence of endolysin EC340 or mtEC340” value in test [3] (Table 3) is “significantly reduced”. For the same molecule, the “Fractional inhibitory concentration index (FICI) of LNT113 using various antibiotics” value in test [3] (antibiotic combined with LNT113, E. coli ATCC 8739) is given as 0.25; in test [3] (antibiotic combined with LNT113, E. coli ATCC 51739), 0.5; in test [3] (antibiotic combined with LNT113, E. coli CCARM 1A746), 0.63; in test [3] (antibiotic combined with LNT113, E. coli FORC81), 0.5; in test [3] (antibiotic combined with LNT113, E. coli UPEC 3150) it was 0.38; in test [3] (antibiotic combined with LNT113, E. coli UPEC 3150, listed as colistin), 0.375. The values for the MIC of colistin in test [3] (colistin alone) and in test [3] (in combination with LNT113 of 4 mg/ml) were 16 and 1, respectively. Further, the “decrease of bacterial cells” value in test [4] (colistin-resistant E. coli FORC81, 2 hours) is recorded as 1.2 log.

In the case of Gentamicin, the results for the MIC of antibiotics in test [1] (E. coli CCARM 1A746), in test [1] (E. coli CCARM 1B684) and in test [2] were no less than 128 µg/mL, 128 µg/mL and no less than 128 µg/mL, respectively.

As for Trimethoprim-sulfamethoxazole, the MIC of antibiotics in test [1] (E. coli CCARM 1A746) was no less than 128 µg/mL; in test [2] it was no less than 32 µg/mL.

B1: mtEC340: mutant EC340 with H39S, D43H, T45E, A73V, A81S, T101A and I113V (protein)
chain: VSRNISNNGIKFTAAFEGFRGTAYRATPNEKYLTIGYGSYGPHVEPGKTITPGQGLLLLNRDMAKAVAAVDAVAHHSLTQSQFDAVCDLVYNAGAGVIAAATGTGKALRSGDVATLRAKLALFINQNGKPLLGLRRRTAGRLALFDGKPWQEAEAIGRAVKG
modifications: synthetic_mtEC340
notes: mutant EC340 with H39S, D43H, T45E, A73V, A81S, T101A and I113V
In the case of B1, the “MIC of endolysin combined with colistin: mtEC340” value in test [3] (E. coli ATCC8738, Colistin 0) was greater than 128 µg/mL; in test [3] (E. coli ATCC8738, Colistin 0.125 (row with mtEC340 16)), 16 µg/mL; in test [3] (E. coli ATCC8738, Colistin 0.125 (row with mtEC340 32)), 32 µg/mL; in test [3] (E. coli ATCC8738, Colistin 0.25), less than 2 µg/mL. Besides, the “antibacterial activity (number of bacterium)” value in test [4] (E. coli ATCC8739, ATCC25922, CCARM1A746, CCARM1B684, 2 hours, Tris-HCl pH 7.5) is given as “more excellent antibacterial activity”; in test [5] (K. pneumoniae ATCC700603, KCTC2208, CCARM10143, F85, 2 hours, Tris-HCl pH 7.5) it was “more excellent antibacterial activity”. The “effect of adding NaCl on antibacterial activity” value in test [4] (E. coli ATCC 8739, Tris or Hepes buffer with 150 mM NaCl) is listed as “almost inactivated”; in test [5] (K. pneumoniae KCTC 2208, Tris or Hepes buffer with 150 mM NaCl), “almost inactivated”. The “increase of antibacterial activity versus EC340” value in test [4] (various E. coli strains, 2 hours) is “up to 1 log”; in test [5] (various K. pneumoniae strains, 2 hours), “up to 1 log”.
